These results are taken from patent US11186583B2, “5-alkylthio-7-[(4-arylbenzyl)amino]-1(2)H-pyrazolo[4,3-d]pyrimidines for treatment of lymphoma” (UNIVERZITA PALACKEHO V OLOMOUCI, priority 2018, dated 2021).

Read-outs that look alike come from different tables or passages of the source.

In experiment [1] the target is T1, CDK2/Cyclin E (Homo sapiens, UniProt P24941).
T1 construct: made in house; host or cells: Sf9 insect cells (baculovirus)
As to the kind of experiment: CDK2/Cyclin E kinase inhibition, [γ-33P]ATP, histone H1. It counts as biochemical. Here is the method:
CDK2/Cyclin E and CDK1/Cyclin B kinases were produced in Sf9 insect cells via baculoviral infection and purified on a Ni-NTA column (Qiagen). CDK4/Cyclin D1, CDK5/p35NCK, CDK7/Cyclin H/MAT1 and CDK9/Cyclin T1 were purchased from ProQinase GmbH. […] The reactions were stopped by adding 5 mL of 3% aq. H3PO4. Aliquots were spotted onto P-81 phosphocellulose (Whatman), washed 3 times with 0.5% aq. H3PO4 and finally air-dried. Kinase inhibition was quantified using a FLA-7000 digital image analyzer (Fujifilm). The concentration of the test compounds required to decrease the CDK activity by 50% was determined from dose response curves and designated as IC50.

Experiment [2] deals with OCI-LY2 (diffuse large B-cell lymphoma, subtype—germinal center B-cell). As to the kind of experiment: MTT cytotoxicity assay, OCI-LY2 lymphoma cell line. The class given is cell-based. As to conditions: 72 h, OCI-LY2 cells, three days, read-out: Lymphoma cell lines GI50, OCI-LY2. An excerpt:
(§1) Cytotoxicity of the compounds is the major property determining their anti-lymphoma efficacy in vitro. One of the parameters used, as the basis for cytotoxicity assays, is the metabolic activity of viable cells. For example 2, a microtiter assay, which uses (3-(4,5-dimethylthiazol-2-yl)-2,5-diphenyltetrazolium bromide (MTT), is widely used to quantitate cell proliferation and cytotoxicity. This assay is widely used in drug screening programs and in chemosensitivity testing. Because only metabolically active living cells reduce MTT to correspond purple formazan dye, these assays detect viable cells exclusively. The quantity of reduced MTT corresponds to the number of vital cells in the culture.
(§2) The compounds were assayed using the following lymphoma cell lines: HT (diffuse large B-cell lymphoma, subtype—germinal center B-cell), OCI-LY2 (diffuse large B-cell lymphoma, subtype—germinal center B-cell), MINO (mantle cell lymphoma). All cell lines were grown in RPMI medium supplemented with fetal bovine serum and glutamine and maintained at 37° C. in a humidified atmosphere with 5% CO2. For cytotoxicity assays, 5000-10000 cells were seeded into each well of 96 well plate, allowed to stabilize for at least 8 h and then tested compounds were added at various concentrations ranging from 100 to 0.01 μM in triplicates. After three days, MTT solution (5 mg/ml; Sigma, St. Louis, USA) was added to cells and medium was replaced with DMSO after five hours. The absorbance was measured at 620 nm by employing a microplate reader. MTT assays were repeated 3 times for each drug application and untreated cells were used as reference. The GI50 values, drug concentrations lethal to 50% of the cells, were calculated from the obtained dose response curves.

The subject of experiment [3] is MINO (mantle cell lymphoma). As to the kind of experiment: MTT cytotoxicity assay, MINO lymphoma cell line. It counts as cell-based. Particulars: Homo sapiens, 72 h, MINO cells, three days, read-out: Lymphoma cell lines GI50, MINO.
Source text: as §1, §2
On the technique in general: Tetrazolium dyes change colour on reduction, which living cells bring about.

The subject of experiment [4] is HT (diffuse large B-cell lymphoma, subtype—germinal center B-cell). As to the kind of experiment: MTT cytotoxicity assay, HT lymphoma cell line. As to conditions: Homo sapiens, 72 h, HT cells, three days, read-out: Lymphoma cell lines GI50, HT. It counts as cell-based.
Source text: as §1, §2

The mark [5] stands for this setting: Table 4, read-out: CDK2/E inhibition IC50.

On to `CC(C)c1n[nH]c2c(NCc3ccc(-c4cnccn4)cc3)nc(SCCO)nc12` [Compound 4.133, 5-(2-Hydroxy-1-ethyl)thio-3-isopropyl-7-[4-(pyrazin-2-yl)benzyl]amino-1(2)H-pyrazolo[4,3-d]pyrimidin], for which, in experiment [1] (setting [5]), the IC50 came out at 6 nM.

On to `CC(C)c1[nH]nc2c(NCc3ccc(-n4cccn4)cc3)nc(SCCO)nc12` [Compound 4.80, 5-(2-Hydroxy-1-ethyl)thio-3-isopropyl-7-[4-(pyrazol-1-yl)benzyl]amino-1(2)H-pyrazolo[4,3-d]pyrimidin], for which the IC50 in experiment [1] (setting [5]) stood at 3 nM.

As for `CC(C)c1[nH]nc2c(NCc3ccc(-n4cccn4)cc3)nc(SCCCN(C)C)nc12` [Compound 4.96], in experiment [1] (setting [5]), the IC50 was 60 nM.

With `CC(C)c1n[nH]c2c(NCc3ccc(-c4cnccn4)cc3)nc(SCCN)nc12` [Compound 4.139, 5-(2-Amino-1-ethyl)thio-3-isopropyl-7-[4-(pyrazin-2-yl)benzyl]amino-1(2)H-pyrazolo[4,3-d]pyrimidin], the IC50 in experiment [1] (setting [5]) was 4 nM.

Regarding `CC(C)c1[nH]nc2c(NCc3ccc(-n4cccn4)cc3)nc(SCC(O)CO)nc12` (centres unmarked) [Compound 4.94, 5-(2,3-Dihydroxy-1-propyl)thio-3-isopropyl-7-[4-(pyrazol-1-yl)benzyl]amino-1(2)H-pyrazolo[4,3-d]pyrimidin], in experiment [1] (setting [5]), the IC50 was 6 nM.

`CC(C)c1[nH]nc2c(NCc3ccc(-n4cccn4)cc3)nc(SCC(C)(C)N)nc12` [Compound 4.90, 5-(2-Amino-2-methyl-1-propyl)thio-3-isopropyl-7-[4-(pyrazol-1-yl)benzyl]amino-1(2)H-pyrazolo[4,3-d]pyrimidin]: the IC50 in experiment [1] (setting [5]) worked out at 11 nM.

For the compound `CC(C)c1n[nH]c2c(NCc3ccc(-n4ccnc4)cc3)nc(SCCN)nc12` [Compound 4.57, 5-(2-Amino-1-ethyl)thio-3-isopropyl-7-[4-(imidazol-1-yl)benzyl]amino-1(2)H-pyrazolo[4,3-d]pyrimidin], in experiment [1] (setting [5]), the IC50 amounted to 5 nM.

Consider `CC(C)c1[nH]nc2c(NCc3ccc(-n4cccn4)cc3)nc(SCC(C)(C)O)nc12` [Compound 4.93, 5-(2-Hydroxy-2-methyl-1-propyl)thio-3-isopropyl-7-[4-(pyrazol-1-yl)benzyl]amino-1(2)H-pyrazolo[4,3-d]pyrimidin], for which the IC50 in experiment [1] (setting [5]) was 8 nM.

`CC(C)c1n[nH]c2c(NCc3ccc(-c4ccccn4)cc3)nc(SCCS)nc12` [Compound 4.35, 5-(2-sulfanylethyl)thio-3-isopropyl-7-[4-(2-pyridyl)benzyl]amino-1(2)H-pyrazolo[4,3-d]pyrimidine]: the IC50 in experiment [1] (Table 3, read-out: Enzyme inhibition IC50 CDK2/E) worked out at 320 nM.

On to `CC(C)c1n[nH]c2c(NCc3ccc(-c4ccccn4)cc3)nc(SC(CO)C(C)C)nc12` (centres unmarked) [Compound 4.21, 5-(1-Hydroxy-3-methyl-2-butyl)thio-3-isopropyl-7-[4-(2-pyridyl)benzyl]amino-1(2)H-pyrazolo[4,3-d]pyrimidine], for which the concentration for 50% growth inhibition (GI50) in experiment [2] was 1000 nM; in experiment [3] it was 1310 nM; in experiment [4], 980 nM.

With `CC(O)CSc1nc(NCc2ccc(-n3cccn3)cc2)c2n[nH]c(C(C)C)c2n1` (centres unmarked) [Compound 4.81, 5-(2-Hydroxy-1-propyl)thio-3-isopropyl-7-[4-(pyrazol-1-yl)benzyl]amino-1(2)H-pyrazolo[4,3-d]pyrimidin], the IC50 in experiment [1] (setting [5]) was 37 nM.

For the compound `CC(C)c1n[nH]c2c(NCc3ccc(-c4c[nH]cn4)cc3)nc(SCCO)nc12` [Compound 4.109, 5-(2-Hydroxy-1-ethyl)thio-3-isopropyl-7-[4-(imidazol-4-yl)benzyl]amino-1(2)H-pyrazolo[4,3-d]pyrimidin], the IC50 in experiment [1] (setting [5]) was found to be 5 nM.

`CC(C)c1n[nH]c2c(NCc3ccc(-c4ccccn4)cc3)nc(SCCCN)nc12` [Compound 4.27, 5-(3-Amino-1-propyl)thio-3-isopropyl-7-[4-(2-pyridyl)benzyl]amino-1(2)H-pyrazolo[4,3-d]pyrimidine]: the GI50 came to 151 nM in experiment [2], 156 nM in experiment [3] and 120 nM in experiment [4].

On to `CC(C)c1n[nH]c2c(NCc3ccc(-c4ccccn4)cc3)nc(SCC(N)CN)nc12` (centres unmarked) [Compound 4.29, 5-(2,3-Diamino-1-propyl)thio-3-isopropyl-7-[4-(2-pyridyl)benzyl]amino-1(2)H-pyrazolo[4,3-d]pyrimidine], for which the GI50 was found to be 780 nM in experiment [2], 770 nM in experiment [3] and 480 nM in experiment [4].

Turning to `CC(C)c1n[nH]c2c(NCc3ccc(-c4ccccn4)cc3)nc(SCC(O)CO)nc12` (centres unmarked) [Compound 4.18, 5-(2,3-Dihydroxy-1-propyl)thio-3-isopropyl-7-[4-(2-pyridyl)benzyl]amino-1(2)H-pyrazolo[4,3-d]pyrimidine], the GI50 in experiment [2] amounted to 22 nM; in experiment [3] it was 10 nM; in experiment [4], 21 nM.

As to `CC(C)c1n[nH]c2c(NCc3ccc(-c4ccccn4)cc3)nc(SC3CCCCC3O)nc12` (centres unmarked) [Compound 4.14, 5-(2-Hydroxycyclohexyl1-yl)thio-3-isopropyl-7-[4-(2-pyridyl)benzyl]amino-1(2)H-pyrazolo[4,3-d]pyrimidine], the values for the GI50 in experiment [2], in experiment [3] and in experiment [4] were 680 nM, 530 nM and 636 nM, respectively.

Consider `CC(C)c1n[nH]c2c(NCc3ccc(-c4ccccn4)cc3)nc(SCC(C)(C)O)nc12` [Compound 4.17, 5-(2-Hydroxy-2-methyl-1-propyl)thio-3-isopropyl-7-[4-(2-pyridyl)benzyl]amino-1(2)H-pyrazolo[4,3-d]pyrimidine], for which the results for the GI50 in experiment [2], in experiment [3] and in experiment [4] were 610 nM, 477 nM and 507 nM, respectively.

For `CC(C)c1n[nH]c2c(NCc3ccc(-c4ccccn4)cc3)nc(SCC(O)C(F)(F)F)nc12` (centres unmarked) [Compound 4.32, 5-(3,3,3-Trifluoro-2-hydroxy-1-propyl)thio-3-isopropyl-7-[4-(2-pyridyl)benzyl]amino-1(2)H-pyrazolo[4,3-d]pyrimidine], the 50% growth inhibitory concentration (GI50) is 585 nM in experiment [2], 641 nM in experiment [3] and 690 nM in experiment [4].

For `CC(C)c1n[nH]c2c(NCc3ccc(-c4ccccn4)cc3)nc(SC3CCCC3O)nc12` (centres unmarked) [Compound 4.16, 5-(2-Hydroxycyclopentyl)thio-3-isopropyl-7-[4-(2-pyridyl)benzyl]amino-1(2)H-pyrazolo[4,3-d]pyrimidine], the GI50 was determined as 373 nM in experiment [2], 450 nM in experiment [3] and 567 nM in experiment [4].

As for `CSCCSc1nc(NCc2ccc(-c3ccccn3)cc2)c2[nH]nc(C(C)C)c2n1` [Compound 4.30, 5-(2-Methylthio-1-ethyl)thio-3-isopropyl-7-[4-(2-pyridyl)benzyl]amino-1(2)H-pyrazolo[4,3-d]pyrimidine], the GI50 in experiment [2] was found to be 668 nM; in experiment [3] it was 773 nM; in experiment [4], 975 nM.

As for `CC(C)c1n[nH]c2c(NCc3ccc(-c4ccccn4)cc3)nc(SCC(O)CN3CCNCC3)nc12` (centres unmarked) [Compound 4.25, 5-[3-(1-Piperazinyl)-2-hydroxy-1-propyl]thio-3-isopropyl-7-[4-(2-pyridyl)benzyl]amino-1(2)H-pyrazolo[4,3-d]pyrimidine], the figures for the GI50 in experiment [2], in experiment [3] and in experiment [4] were 435 nM, 767 nM and 332 nM, respectively.

In the case of `CCC(O)CSc1nc(NCc2ccc(-c3ccccn3)cc2)c2[nH]nc(C(C)C)c2n1` (centres unmarked) [Compound 4.15, 5-(2-Hydroxy-1-butyl)thio-3-isopropyl-7-[4-(2-pyridyl)benzyl]amino-1(2)H-pyrazolo[4,3-d]pyrimidine], the results for the GI50 in experiment [2], in experiment [3] and in experiment [4] were 280 nM, 427 nM and 273 nM, respectively.

The GI50 is the concentration at which growth is held to half of that of the control.
